A short description of data set [1]: Stability of labeled compound by TLC after labeling. Format: physicochemical. The following applies: after 24 h and 48 h. How it is done: All precursors were labeled by “Shirakami Reaction” and purified using an HLB column (Waters Corp, Waltham, MA, USA). All structures are shown in Supplementary Figure S1. After purification, the solution was supplemented with 1% (v/w) of ascorbic acid. The retention time of (S)-2-amino-3-(3-(astato-^211At)-4-methoxyphenyl)-2-methylpropanic acid (^211At-AAMT-OMe-L) determined using High Performance Liquid Chromatography (HPLC) (concentration: 1 MBq/mL, Flow: 1 mL/min; absorbance = 226 nm) was 12.91 min. A COSMOSIL Packed 5C18-MS-II (4.6 mm × 150 mm) Column was used at 40 °C. Mobile phase A was 0.1% formic acid and B was acetonitrile (10–60%, 20 min). […] The stability of ^211At-AAMT-OMe-L in its unpurified state was analyzed by thin layer chromatography (TLC). BAS IP MS 2025E (GE Healthcare Technologies Inc., Chicago, IL, USA) was used for imaging. […] Because optical isomers were only examined for ^211At-AAMT-OMe-L and the remaining labeled products were all L-isomers, the DL notation was omitted when optical isomers were not compared. ^211At-AAMT-O-Me-L in the crude product solution was detected at Rf = 0.80, yielding a radiochemical yield (RCY) of 81.3%. The radiochemical yield and purity of the purified product were 81% and 98%, respectively. ^211At-AAMT-O-Me-D in the crude product solution was detected at Rf = 0.80, yielding a radiochemical yield (RCY) of 79.6%. […]

The next data set relates to LAT1-Tet/HEK293 cells. As to the kind of experiment: Uptake versus LAT1 expression level (Dox-induced) in LAT1-Tet/HEK293 cells. The data set is classed as cell-based. The following applies: collection 30 min after treatment. How it is done:
Each cell line was seeded in 24 wells at 1 × 10^5 cells/mL and allowed to become sub-confluent on the day of the experiment. Cells were washed with PBS (-) (Fujifilm Wako Pure Chemical, Osaka, Japan) prior to the addition of the compound, which was then replaced with uptake buffer. After treating the cells with the same dose, they were collected at predetermined time points. The cell dose was measured using a γ-counter (Wizard^2 2480; PerkinElmer, Waltham, MA, USA), and the protein content of the sample was determined. Protein content was measured using the BCA method, and the dose was corrected using the protein content (Protein Assay BCA kit, Fujifilm Wako Pure Chemical).
Figure 2 Comparison of uptake between the labeled compounds. (A) Relation between uptake ratio and LAT1 expression level. Uptake ratios were compared between LAT1-Tet/HEK293 cells. The Y-axis represents the uptake ratio, and the X-axis is concentration of Doxycycline (Dox) (TaKaRa Bio, Shiga, Japan). The collection time was 30 min after treatment. The expression of LAT1 increased with increasing amounts of Dox. (B) Comparison of uptake in PANC-1 cell line. The collection times were 0.5, 1, 5 and 10 min after treatment.
The PANC-1 cell line was obtained from the RIKEN Cell Bank and maintained in RPMI 1640 medium (Fujifilm Wako Pure Chemical, Osaka, Japan) supplemented with 10% inactivated fetal bovine serum (Thermo Fisher Scientific, Waltham, MA, USA). Mock/HEK293, LAT1/HEK293, and LAT2/HEK203 cells were kindly provided by Dr. Kanai. Cell lines controlling LAT1 expression were constructed using the Tet-on system. HEK293 cells were obtained from the RIKEN Cell Bank and maintained in E-MEM (Fujifilm Wako Pure Chemical) supplemented with 10% inactivated fetal bovine serum (Thermo Fisher Scientific) and non-essential amino acids (Fujifilm Wako Pure Chemical). The expression vectors were purchased from VectorBuilder, Inc. (Kanagawa, Japan). The purified viral particle genes were transfected into HEK293 cells. Drug selection and cloning of the cell line (Tet-LAT1/HEK293) were performed. […]

1 compound from paper PMC11594329, “Development of LAT1-Selective Nuclear Medicine Therapeutics Using Astatine-211” (International Journal of Molecular Sciences, 2024) can be followed below.

SMILES strings stand for the structures.

`COc1ccc(C[C@](C)(N)C(=O)O)cc1[211At]` [^211At-AAMT-O-Me-L, (S)-2-amino-3-(3-(astato-^211At)-4-methoxyphenyl)-2-methylpropanic acid]: in data set [1], the “Stability in unpurified state by TLC” value is listed as “almost no degradation”. Further, in the data set with LAT1-Tet/HEK293 cells, the “Uptake ratio versus LAT1 expression (doxycycline concentration)” value is “highest increase in uptake”.
